Test results taken from article PMC6767236, “Selective Cannabinoid 2 Receptor Agonists as Potential Therapeutic Drugs for the Treatment of Endotoxin-Induced Uveitis” (Molecules, 2019).
Like-named read-outs stand apart in the source and are kept apart here.

How the values were obtained:
CYP3A4 = CYP3A4 (Homo sapiens, UniProt P08684); assay: Cytochrome P450 inhibition assay, CYP3A4; assay type: in vitro ADME
[1] = * previously published; cited from earlier work
[2] = Method: The GSH adduct formation test aims for the identification of molecules which bear the risk of forming reactive metabolites that might trigger drug-induced liver injury and drug-induced hypersensitivity reactions in patients. The compounds are incubated with liver microsomes to assess reactive metabolite formation. Glutathione is added as a nucleophile to convert eventually formed reactive species into a stable conjugate that can be analyzed by mass spectrometry. Details on the assay have been reported in Brink et al. (2014). […]
[3] = cited from earlier work; for PAMPA Peff: * at end of cell: previously published; for PAMPA %Acceptor / PAMPA %Donor / PAMPA %Membrane: * previously published
human CB2R [4] = target: T1, human CB2R (Homo sapiens, UniProt P34972); details: cited from earlier work; for Ki: read-out: hCB2R: Ki
T1 construct: bgal (beta-galactosidase fragment of the PathHunter system, named only in the cell line's name); host or cells: CHO-K1 (CHOK1hCB2_bgal)

[5] = design: method as in earlier work; details: mouse, i.v., 0.5-1 mg/kg; * previously published; cited from earlier work
human CB2R [6] = target: T1, human CB2R; assay: PathHunter β-arrestin recruitment assay, hCB2R; assay type: cell-based; details: for EC50: read-out: hCB2R: beta arrestin EC50
Method: Assays were carried out using the PathHunter hCB1_bgal, hCB2_bgal, or mCB2_bgal CHOK1 β-arrestin recruitment assay kit (DiscoveRx, Fremont, CA, USA) as previously described. A total of 5000 cells per well were seeded in 384-well plates (Perkin Elmer, MA, USA) containing 20 μL cell culture medium and incubated for 16–18 h at 37 °C and 5% CO2. Cells were stimulated with 10 μM of each agonist or 11 increasing concentrations and incubated for 90 min at 37 °C and 5% CO2. […] The cells were incubated for 90 min at 37 °C and 5% CO2. Compounds in DMSO stock solutions were added using a HP D300 Digital Dispenser (Tecan, Mannedorf, Switzerland). The final concentration of organic solvent per assay point was ≤ 0.1%. The PathHunter Detection mixture was used, according to the manufacturer’s protocol, to determine the β-galactosidase enzyme activity. Detection mixture, 12 μL per well, was added and the plate was incubated for 1 h in the dark at room temperature. Chemiluminescence, indicated as relative light unit, was measured on an EnVision multilabel plate reader (Perkin Elmer, MA, USA).

mouse P-gp = details: cited from earlier work; for P-glycoprotein-Mediated Efflux Extraction Ratio mouse: mouse P-gp, * previously published; for P-gp substrate, mouse: underlying data previously published
[7] = Chemical stability (aqueous stability assay ASTA); assay type: physicochemical; details: aqueous buffer, 37 °C
Method: Chemical Stability (= Aqueous Stability Assay ASTA)
ASTA is a fully automated assay to determine the 2 h stability of a molecule in aqueous conditions, over the pH range 1–10. Five different pH values are used and the solutions are heated at 37 °C. A compound is classified unstable if, after 2 h, less than 90% of the initial concentration can be found. Samples are first prepared on incubation plates and shaken initially for 10 min at 37 °C.
Solutions are then transferred to a filter plate (Millipore MSGVN2250, pore size 0.22 µm) and filtrated into V-bottom plates (from ABGene, AB-0800) that are heat-sealed prior to HPLC analysis. The procedure is performed a second time. However, the incubation time at 37 °C for the second plate is increased by 2 h. Samples are taken at time point 0 and 2 h and analyzed by HPLC. […]

mouse CB2R = mouse CB2R (Mus musculus, UniProt P47936); assay: biochemical; assay type: binding; design: bgal (beta-galactosidase fragment of the PathHunter system, named only in the cell line's name); host or cells: CHO-K1 (CHOK1mCB2_bgal)
Method: Membrane fractions were prepared from cultured CHOK1hCB1_bgal, CHOK1hCB2_bgal, and CHOK1mCB2_bgal cells (DiscoveRx, Fremont, CA, USA) as previously described. Protein concentration was determined using the Pierce bicinchoninic acid (BCA) protein assay (Rochford, IL, USA) as per the manufacturer’s instructions.
Radio ligand-binding assays were carried out as described by Souethoudt et al. (2018). Briefly, membranes from cells expressing human CB2R or CB1R or mouse CB2R and the radioligand, [^3H]-CP55940 (Perkin Elmer, Basel, Switzerland) was used. […] Membrane aliquots containing 5 µg (CHOK1hCB1_bgal) or 1 µg (CHOK1hCB2_bgal) of membrane protein in 100 µL assay buffer (50 mMTris-HCl, 5 mM MgCl2, 0.1% bovine serum albumin (BSA), pH 7.4) were incubated at 30 °C for 1 h, in presence of 3.5 nM of [^3H]-CP55940 (CHOK1hCB1_bgal) or 1.5 nM [^3H]-CP55940 (CHOK1hCB2_bgal). The incubation was terminated by rapid filtration performed on glass microfibre (GF/C) filters (Whatman International, Maidstone, UK), presoaked for 30 min with 0.25% polyethyleneimine (PEI), and using a Brandel harvester (Brandel, Gaithersburg, MD, USA). Filter-bound radioactivity was determined by scintillation spectrometry using a Tri-Carb 2900 TR liquid scintillation counter (Perkin Elmer, Boston, MA, USA). For mouse experiments, spleens were collected as previously described and resuspended in 2 mM Tris-EDTA, 320 mM sucrose, 5 mM MgCl2 (pH 7.4). Tissue was homogenized with a Potter homogenizer and centrifuged three times at 1000× g (10 min). The supernatants were centrifuged at 18,000× g (30 min), and the pellets were resuspended in assay buffer (50 mM Tris-HCl, 2 mM Tris-EDTA, 3 mM MgCl2, pH 7.4). These membrane fractions were used in rapid filtration assays with 400 pM of [^3H]-CP55,940. In all receptor binding experiments, nonspecific binding was determined in the presence of 1 µM “cold” agonist.

[8] = human and mouse liver microsomes; underlying data previously published; cited from earlier work
[9] = pH 1, 2 h, read-out: Chemical Stability in Aqueous Buffer at pH 1 (% remaining after 2 h at 37 °C)
[10] = pH 4, 2 h, read-out: Chemical Stability in Aqueous Buffer at pH 4 (% remaining after 2 h at 37 °C)
[11] = pH 6.5, 2 h, read-out: Chemical Stability in Aqueous Buffer at pH 6.5 (% remaining after 2 h at 37 °C)
[12] = pH 8, 2 h, read-out: Chemical Stability in Aqueous Buffer at pH 8 (% remaining after 2 h at 37 °C)
[13] = pH 10, 2 h, read-out: Chemical Stability in Aqueous Buffer at pH 10 (% remaining after 2 h at 37 °C)
[14] = [3H]-CP55940 displacement, read-out: mouse CB2R: Ki
[15] = [3H]-CP55940 displacement, * previously published
[16] = species ratio of binding affinity

T1 sequence (P34972 whole entry, the tested form may be a part): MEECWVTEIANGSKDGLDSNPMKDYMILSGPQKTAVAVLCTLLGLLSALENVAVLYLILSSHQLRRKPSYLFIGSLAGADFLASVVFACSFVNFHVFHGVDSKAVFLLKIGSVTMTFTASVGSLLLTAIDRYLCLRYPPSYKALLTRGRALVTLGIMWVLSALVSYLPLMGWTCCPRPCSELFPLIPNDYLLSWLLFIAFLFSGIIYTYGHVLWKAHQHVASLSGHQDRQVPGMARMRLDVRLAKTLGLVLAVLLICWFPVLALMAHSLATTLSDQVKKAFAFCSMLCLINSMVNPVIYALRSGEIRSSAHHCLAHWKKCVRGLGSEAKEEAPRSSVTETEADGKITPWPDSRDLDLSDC
Sequence of mouse CB2R (P47936 whole entry, the tested form may be a part): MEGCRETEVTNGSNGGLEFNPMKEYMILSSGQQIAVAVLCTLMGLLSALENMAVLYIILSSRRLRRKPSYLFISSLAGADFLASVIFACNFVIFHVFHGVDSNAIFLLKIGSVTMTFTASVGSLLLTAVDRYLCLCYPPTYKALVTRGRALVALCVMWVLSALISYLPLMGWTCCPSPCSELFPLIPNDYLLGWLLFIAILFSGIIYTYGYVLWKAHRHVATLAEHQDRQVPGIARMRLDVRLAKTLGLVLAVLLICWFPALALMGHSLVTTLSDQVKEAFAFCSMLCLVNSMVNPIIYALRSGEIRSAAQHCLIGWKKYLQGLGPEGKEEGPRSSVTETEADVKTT
Sequence of CYP3A4 (P08684 whole entry): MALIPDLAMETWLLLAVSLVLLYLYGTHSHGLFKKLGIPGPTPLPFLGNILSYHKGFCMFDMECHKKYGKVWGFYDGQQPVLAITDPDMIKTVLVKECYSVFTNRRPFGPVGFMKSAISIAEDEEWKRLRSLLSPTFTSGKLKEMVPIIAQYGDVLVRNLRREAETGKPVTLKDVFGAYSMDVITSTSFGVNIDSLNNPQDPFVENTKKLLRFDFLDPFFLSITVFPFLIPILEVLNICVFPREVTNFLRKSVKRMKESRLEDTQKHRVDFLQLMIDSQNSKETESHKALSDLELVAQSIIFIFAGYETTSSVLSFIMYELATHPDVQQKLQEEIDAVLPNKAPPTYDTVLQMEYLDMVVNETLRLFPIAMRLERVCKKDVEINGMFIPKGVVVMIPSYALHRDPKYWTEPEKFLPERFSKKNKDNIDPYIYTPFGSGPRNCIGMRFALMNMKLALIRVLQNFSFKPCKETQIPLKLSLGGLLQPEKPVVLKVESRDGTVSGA

Structure (SMILES) | IC50 (CYP3A4; read-out: IC50 CYP3A4) | Plasma Protein Binding: FREE Fraction human [1] | GSH Adduct Formation in Human Liver Microsomes [2] | PAMPA Peff [3] | PAMPA %Acceptor [3] | PAMPA %Donor [3] | PAMPA %Membrane [3] | AUCINF D [5] | Clearance (CL) [5] | T1/2 [5] | Vss [5] | hCB1R beta arrestin EC50/hCB2R beta arrestin EC50 (human CB2R [6]) | P-glycoprotein-Mediated Efflux Extraction Ratio mouse (mouse P-gp) | remaining at 2 h [7, 9] | remaining at 2 h [7, 10] | remaining at 2 h [7, 11] | remaining at 2 h [7, 12] | remaining at 2 h [7, 13] | clearance in human as well as mouse microsomes (class in words) [8] | hCB2R Ki/mouse CB2R Ki (mouse CB2R; [16]) | other results
CCCCCCC(C)(C)c1cc(OC)c(C2=C[C@H]3CC[C@]2(CO)C3(C)C)c(OC)c1 [HU910, {(1S,4R)-2-[2,6-dimethoxy-4-(2-methyloctan-2-yl)phenyl]-7,7-dimethylbicyclo[2.2.1]hept-2-en-1-yl}methanol, reference compound] | 37 µM | 1.8% | no adduct | 0.45 10*-6 cm/s | 1% | 42% | 57% | 6060 ng·kg·h/mL/mg | 2.8 mL/min/kg | 7.4 h | 0.26 L/kg | >275 | 3.0 | 94% | 93% | 91% | 94% | 93% | – | – | Ki (human CB2R [4]): 0.043 µM; hCB2R Ki/mouse CB2R Ki (mouse CB2R): 0.2; Ki (mouse CB2R; [14]): 0.276 µM
Cc1nc([C@](C)(CC2CC2)NC(=O)c2cc(OCC(F)(F)F)c(C3CC3)cn2)no1 [RO6871085, 5-Cyclopropyl-N-[(2S)-1-cyclopropyl-2-(5-methyl-1,2,4-oxadiazol-3-yl)propan-2-yl]-4-(2,2,2-trifluoroethoxy)pyridine-2-carboxamide] | 37 µM | 1.0% | no adduct | 2.44 10*-6 cm/s | 2% | 20% | 78% | 1412 ng·kg·h/mL/mg | 11.8 mL/min/kg | 4.15 h | 4.0 L/kg | >545 | 1.7 | 99% | 99% | 97% | 99% | 99% | low to medium clearances | 13 | Ki (human CB2R [4]; [15]): 0.076 µM; functional behaviour in hCB2R β-arrestin assay (human CB2R [6]): partial agonist; hCB2R: beta arrestin efficacy (human CB2R [6]): 51%; EC50 (human CB2R [6]): 0.055 µM; P-gp substrate, mouse (mouse P-gp): not a P-gp substrate
CCCCCCC(C)(C)c1cc(OC)c([C@H]2C=C(CO)[C@H]3C[C@@H]2C3(C)C)c(OC)c1 [HU308, {(1S,4S,5S)-4-[2,6-Dimethoxy-4-(2-methyloctan-2-yl)phenyl]-6,6-dimethylbicyclo[3.1.1]hept-2-en-2-yl}methanol, reference compound] | – | – | no adduct | 2.53 10*-6 cm/s | 3% | 23% | 74% | – | – | – | – | – | – | – | – | – | – | – | – | – | IC50 (CYP3A4): > 50 µM; Ki (mouse CB2R): 0.223 µM
CNC(=O)[C@@H](NC(=O)c1cc(OCC2(C)COC2)c(C2CC2)cn1)C(C)(C)C [RO6851228, 5-Cyclopropyl-N-[(2S)-3,3-dimethyl-1-(methylamino)-1-oxobutan-2-yl]-4-[(3-methyloxetan-3-yl)methoxy]pyridine-2-carboxamide] | > 50 µM | 9.6% | no adduct | 5.17 10*-6 cm/s | 19% | 79% | 3% | 226 ng·kg·h/mL/mg | 73.8 mL/min/kg | 1.08 h | 3.1 L/kg | – | 25.1 | 93% | 100% | 99% | 100% | 100% | low to medium clearances | 45 | Ki (human CB2R [4]; [15]): 0.045 µM; hCB1R Ki/hCB2R Ki (human CB2R [4]; binding selectivity, * previously published): 147 *; functional behaviour in hCB2R β-arrestin assay (human CB2R [6]): inverse agonist; hCB2R: beta arrestin efficacy (human CB2R [6]): −18%; EC50 (human CB2R [6]): 0.003 µM; P-gp substrate, mouse (mouse P-gp): strong P-gp substrate
CC(C)(C)c1nc(N2CC[C@H](O)C2)c2nnn(Cc3nnnn3C3CC3)c2n1 [RO6871304, (3S)-1-{5-tert-butyl-3-[(1-cyclopropyl-1H-tetrazol-5-yl)methyl]-3H-[1,2, 3]triazolo[4,5-d]pyrimidin-7-yl}pyrrolidin-3-ol] | > 50 µM | – | no adduct | 3.06 10*-6 cm/s | 8% | 62% | 30% | – | 36.5 mL/min/kg | – | 0.95 L/kg | >1429 | – | 100% | 100% | 100% | 99% | 100% | low to medium clearances | 0.5 | Ki (mouse CB2R; [14]): 0.034 µM
